# In ChEMBL document CHEMBL5046322, “Discovery of SHR2415, a Novel Pyrrole-Fused Urea Scaffold ERK1/2 Inhibitor” (ACS Med Chem Lett, 2022):
# Tests used:
# COLO 205 [1] = assay: Antiproliferative activity against human COLO 205 cells assessed as reduction in cell viability for 72 hrs by cell titre glo luminescence assay; type: functional, cell-based
# [2] = biological target: Mitogen-activated protein kinase 1 (Homo sapiens, UniProt P28482); assay: Inhibition of ERK2 (unknown origin) measured after 2 hr by ADP-glo assay
# Cytochrome P450 2C19 = Cytochrome P450 2C19 (Homo sapiens, UniProt P33261); assay: Inhibition of CYP2C19 in human liver microsomes
# Cytochrome P450 2D6 = Cytochrome P450 2D6 (Homo sapiens, UniProt P10635); assay: Inhibition of CYP2D6 in human liver microsomes
# Cytochrome P450 2C9 = Cytochrome P450 2C9 (Homo sapiens, UniProt P11712); assay: Inhibition of CYP2C9 in human liver microsomes
# Cytochrome P450 1A2 = biological target: T1, Cytochrome P450 1A2 (Homo sapiens, UniProt P05177); assay: Inhibition of CYP1A2 in human liver microsomes
# T1 sequence (P05177 whole entry): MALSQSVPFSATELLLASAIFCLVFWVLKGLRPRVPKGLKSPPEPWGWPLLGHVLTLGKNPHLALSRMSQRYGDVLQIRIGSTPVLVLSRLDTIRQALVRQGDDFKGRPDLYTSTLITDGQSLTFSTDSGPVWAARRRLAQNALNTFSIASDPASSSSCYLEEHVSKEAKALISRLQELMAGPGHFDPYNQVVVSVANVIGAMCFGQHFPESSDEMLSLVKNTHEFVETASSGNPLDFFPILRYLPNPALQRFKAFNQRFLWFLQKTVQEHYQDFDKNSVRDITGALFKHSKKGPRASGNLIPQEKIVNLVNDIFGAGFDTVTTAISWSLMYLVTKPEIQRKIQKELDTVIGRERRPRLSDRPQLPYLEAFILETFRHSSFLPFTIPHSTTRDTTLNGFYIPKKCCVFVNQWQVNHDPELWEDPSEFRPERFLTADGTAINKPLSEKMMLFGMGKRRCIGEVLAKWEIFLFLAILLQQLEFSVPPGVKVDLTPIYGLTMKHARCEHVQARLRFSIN
# Cytochrome P450 3A4 = Cytochrome P450 3A4 (Homo sapiens, UniProt P08684); assay: Inhibition of CYP3A4 in human liver microsomes
# [3] = Cmax in Beagle dog plasma at 0.5 mg/kg, iv and measured after 24 hrs by LC/MS/MS analysis; type: ADME, organism-based, Canis lupus familiaris; set-up: route intravenous, time 24 hrs, dose 0.5 mg/kg
# [4] = Clearance in Beagle dog plasma at 0.5 mg/kg, iv and measured after 24 hrs by LC/MS/MS analysis; type: ADME, organism-based, Canis lupus familiaris
# [5] = Oral bioavailability in Sprague-Dawley rat at 2 mg/kg; type: ADME, organism-based; conditions: in vivo
# [6] = Clearance in Sprague-Dawley rat plasma at 1 mg/kg, iv and measured after 24 hrs by LC/MS/MS analysis; type: ADME, organism-based
# [7] = Plasma protein binding in human; type: ADME, cell-free; conditions: read-out: PPB (converted)
# [8] = AUC in plasma of BALB/c mouse xenografted with human COLO 205 cells at 25 mg/kg, po for 14 days; type: ADME, organism-based; set-up: time 14 day, dose 25 mg/kg
# [9] = AUC in tumor of BALB/c mouse xenografted with human COLO 205 cells at 25 mg/kg, po for 14 days; type: ADME, organism-based, Neoplasm; set-up: time 14 day, dose 25 mg/kg
# [10] = Cmax in plasma of BALB/c mouse xenografted with human COLO 205 cells at 25 mg/kg, po for 14 days; type: ADME, organism-based; set-up: route oral, dose 25 mg/kg, time 14 day
# [11] = Oral bioavailability in Beagle dog at 2 mg/kg; type: ADME, organism-based, Canis lupus familiaris; conditions: in vivo
# [12] = biological target: Cyclin-dependent kinase 2 (Homo sapiens, UniProt P24941); assay: Inhibition of CDK2 (unknown origin)
# [13] = AUC (0 to t) in Sprague-Dawley rat at 2 mg/kg, po; type: ADME, organism-based; set-up: dose 2 mg/kg; conditions: in vivo
# COLO 205 [14] = assay: Antitumor activity against human COLO 205 cells xenografted in BALB/c nude mouse assessed as TGI at 25 mg/kg, po measured after 14 days; type: functional; conditions: COLO 205, po, 336 h, time 14 day, read-out: TGI
# [15] = Cmax in Sprague-Dawley rat plasma at 1 mg/kg, iv and measured after 24 hrs by LC/MS/MS analysis; type: ADME, organism-based; set-up: route intravenous, dose 1 mg/kg, time 24 hrs
# [16] = Oral bioavailability in ICR mouse at 2 mg/kg; type: ADME, organism-based; conditions: in vivo
# [17] = Clearance in ICR mouse plasma at 1 mg/kg, iv and measured after 24 hrs by LC/MS/MS analysis mg/kg, iv; type: ADME, organism-based
# [18] = Cmax in tumor of BALB/c mouse xenografted with human COLO 205 cells at 25 mg/kg, po for 14 days; type: ADME, organism-based, Neoplasm; set-up: route oral, dose 25 mg/kg, time 14 day
# [19] = Half life in Sprague-Dawley rat at 2 mg/kg, po; conditions: in vivo
# in vivo = conditions: BALB/c, mouse, tumour, po, 25 mg/kg
# Description: Ratio of AUC in tumor to plasma of BALB/c mouse xenografted with human COLO 205 cells at 25 mg/kg, po for 14 days
# [20] = AUC (0 to t) in ICR mouse at 2 mg/kg, po; type: ADME, organism-based; set-up: dose 2 mg/kg; conditions: in vivo
# [21] = Half life in Beagle dog at 2 mg/kg, po; conditions: in vivo
# [22] = biological target: Glycogen synthase kinase-3 beta (Homo sapiens, UniProt P49841); assay: Inhibition of GSK3beta (unknown origin)
# [23] = AUC (0 to t) in Beagle dog at 2 mg/kg, po; type: ADME, organism-based, Canis lupus familiaris; set-up: dose 2 mg/kg; conditions: in vivo
# [24] = Cmax in tumor of BALB/c mouse xenografted with human COLO 205 cells at 50 mg/kg, po for 14 days; type: ADME, organism-based, Neoplasm; set-up: route oral, dose 50 mg/kg, time 14 day
# [25] = Ratio of AUC in tumor to plasma of BALB/c mouse xenografted with human COLO 205 cells at 50 mg/kg, po for 14 days; type: ADME, organism-based; conditions: tumor and plasma, time 14 day, read-out: Ratio AUC
# [26] = AUC in tumor of BALB/c mouse xenografted with human COLO 205 cells at 50 mg/kg, po for 14 days; type: ADME, organism-based, Neoplasm; set-up: dose 50 mg/kg, time 14 day
# [27] = AUC in plasma of BALB/c mouse xenografted with human COLO 205 cells at 50 mg/kg, po for 14 days; type: ADME, organism-based; set-up: time 14 day, dose 50 mg/kg
# COLO 205 [28] = assay: Antitumor activity against human COLO 205 cells xenografted in BALB/c nude mouse assessed as TGI at 50 mg/kg, po measured after 14 days; type: functional; conditions: COLO 205, po, 336 h, time 14 day, read-out: TGI
# [29] = Cmax in plasma of BALB/c mouse xenografted with human COLO 205 cells at 50 mg/kg, po for 14 days; type: ADME, organism-based; set-up: route oral, dose 50 mg/kg, time 14 day
# [30] = Half life in ICR mouse at 2 mg/kg, po; conditions: in vivo
# [31] = Cmax in ICR mouse plasma at 1 mg/kg, iv and measured after 24 hrs by LC/MS/MS analysis; type: ADME, organism-based; set-up: route intravenous, dose 1 mg/kg, time 24 hrs
# [32] = Homo sapiens, COLO 205, 72 h, read-out: IC50
# Chain of Mitogen-activated protein kinase 1 (P28482 whole entry): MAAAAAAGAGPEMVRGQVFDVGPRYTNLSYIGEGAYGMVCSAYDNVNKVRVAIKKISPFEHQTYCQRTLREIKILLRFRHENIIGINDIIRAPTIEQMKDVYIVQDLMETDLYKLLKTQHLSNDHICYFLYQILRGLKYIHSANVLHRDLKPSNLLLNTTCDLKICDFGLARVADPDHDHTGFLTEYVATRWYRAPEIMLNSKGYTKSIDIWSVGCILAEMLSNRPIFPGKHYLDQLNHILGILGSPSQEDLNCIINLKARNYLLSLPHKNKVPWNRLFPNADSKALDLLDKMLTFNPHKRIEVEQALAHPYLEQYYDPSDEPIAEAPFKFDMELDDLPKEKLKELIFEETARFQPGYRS
# Chain of Cytochrome P450 2C9 (P11712 whole entry): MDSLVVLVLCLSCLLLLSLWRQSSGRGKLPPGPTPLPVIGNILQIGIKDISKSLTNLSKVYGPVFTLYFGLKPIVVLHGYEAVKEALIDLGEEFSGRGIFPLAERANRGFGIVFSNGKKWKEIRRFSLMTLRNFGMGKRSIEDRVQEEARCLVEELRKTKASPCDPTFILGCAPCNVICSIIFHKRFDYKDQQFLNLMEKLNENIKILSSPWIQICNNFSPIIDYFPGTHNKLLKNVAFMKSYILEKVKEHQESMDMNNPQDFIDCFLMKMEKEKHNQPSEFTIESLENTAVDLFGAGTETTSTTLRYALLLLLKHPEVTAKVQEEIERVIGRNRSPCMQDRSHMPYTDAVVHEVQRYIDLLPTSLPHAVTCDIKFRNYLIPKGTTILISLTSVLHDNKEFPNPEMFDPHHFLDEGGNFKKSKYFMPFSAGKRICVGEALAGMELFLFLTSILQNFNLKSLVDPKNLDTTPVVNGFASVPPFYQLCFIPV
# Chain of Glycogen synthase kinase-3 beta (P49841 whole entry): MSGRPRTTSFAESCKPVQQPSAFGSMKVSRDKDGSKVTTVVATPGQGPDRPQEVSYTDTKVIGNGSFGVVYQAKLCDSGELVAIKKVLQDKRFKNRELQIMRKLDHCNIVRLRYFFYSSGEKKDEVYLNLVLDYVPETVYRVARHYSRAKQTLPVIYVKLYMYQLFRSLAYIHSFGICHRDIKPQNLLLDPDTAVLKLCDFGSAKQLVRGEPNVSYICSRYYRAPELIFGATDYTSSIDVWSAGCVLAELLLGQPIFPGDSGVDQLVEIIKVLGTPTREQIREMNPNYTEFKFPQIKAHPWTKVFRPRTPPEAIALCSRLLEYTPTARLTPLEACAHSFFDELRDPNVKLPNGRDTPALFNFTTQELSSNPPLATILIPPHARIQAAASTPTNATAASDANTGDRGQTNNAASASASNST
# Chain of Cytochrome P450 2C19 (P33261 whole entry): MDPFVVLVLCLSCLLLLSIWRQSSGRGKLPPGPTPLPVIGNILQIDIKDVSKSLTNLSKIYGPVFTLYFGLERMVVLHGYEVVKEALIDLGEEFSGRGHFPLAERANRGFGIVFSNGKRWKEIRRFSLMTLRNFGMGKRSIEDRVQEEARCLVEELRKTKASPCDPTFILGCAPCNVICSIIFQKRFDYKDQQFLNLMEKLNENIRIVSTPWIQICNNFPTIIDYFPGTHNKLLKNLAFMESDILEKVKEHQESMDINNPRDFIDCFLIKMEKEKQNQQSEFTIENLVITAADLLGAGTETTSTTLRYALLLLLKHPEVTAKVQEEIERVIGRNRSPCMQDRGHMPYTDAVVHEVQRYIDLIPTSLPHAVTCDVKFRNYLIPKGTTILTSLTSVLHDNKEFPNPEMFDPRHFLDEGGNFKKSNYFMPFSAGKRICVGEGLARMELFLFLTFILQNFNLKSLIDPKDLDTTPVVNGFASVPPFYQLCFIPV
# Chain of Cytochrome P450 3A4 (P08684 whole entry): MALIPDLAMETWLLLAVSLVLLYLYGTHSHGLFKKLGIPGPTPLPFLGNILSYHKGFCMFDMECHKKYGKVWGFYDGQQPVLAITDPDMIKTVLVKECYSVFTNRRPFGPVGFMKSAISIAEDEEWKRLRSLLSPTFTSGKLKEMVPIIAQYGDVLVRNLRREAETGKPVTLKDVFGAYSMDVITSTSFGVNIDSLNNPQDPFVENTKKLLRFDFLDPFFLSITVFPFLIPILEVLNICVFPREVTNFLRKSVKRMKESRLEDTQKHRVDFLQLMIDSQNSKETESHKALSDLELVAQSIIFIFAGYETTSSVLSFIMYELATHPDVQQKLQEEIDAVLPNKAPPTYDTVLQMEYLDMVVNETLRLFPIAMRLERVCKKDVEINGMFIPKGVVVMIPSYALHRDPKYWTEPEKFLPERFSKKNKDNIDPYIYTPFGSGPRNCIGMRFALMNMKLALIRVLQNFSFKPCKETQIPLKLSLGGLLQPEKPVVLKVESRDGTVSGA
# Chain of Cytochrome P450 2D6 (P10635 whole entry): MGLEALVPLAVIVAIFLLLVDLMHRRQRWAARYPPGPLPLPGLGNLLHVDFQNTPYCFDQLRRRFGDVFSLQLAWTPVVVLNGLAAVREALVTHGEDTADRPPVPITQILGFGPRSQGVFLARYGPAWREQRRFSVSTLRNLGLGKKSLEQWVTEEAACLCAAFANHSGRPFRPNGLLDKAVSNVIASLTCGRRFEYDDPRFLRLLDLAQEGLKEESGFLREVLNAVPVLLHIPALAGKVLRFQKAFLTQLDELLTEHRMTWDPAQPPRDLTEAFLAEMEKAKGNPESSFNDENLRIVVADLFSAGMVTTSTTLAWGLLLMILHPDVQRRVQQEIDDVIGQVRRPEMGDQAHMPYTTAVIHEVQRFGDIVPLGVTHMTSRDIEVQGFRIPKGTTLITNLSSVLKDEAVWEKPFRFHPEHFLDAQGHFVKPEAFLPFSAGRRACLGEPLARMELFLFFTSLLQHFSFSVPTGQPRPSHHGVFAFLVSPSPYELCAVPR
smiles,measurement,setting,value
Cc1cnc(Nc2ccnn2C)nc1-c1cc2n(c1)C(=O)N([C@H](CO)c1ccc(F)c(Cl)c1)C2,IC50,COLO 205 [1]; [32],94.9 nM
same,IC50,[2],9.5 nM
Cc1cnc(Nc2ccnn2C)nc1-c1ccc2c(c1)CCN([C@H](CO)c1cccc(Cl)c1)C2=O,IC50,COLO 205 [1]; [32],856 nM
same,IC50,[2],9.2 nM
C[C@@H](CO)Nc1ncc(Cl)c(-c2cc3n(c2)C(=O)N([C@H](CO)c2cccc(Cl)c2)C3)n1,IC50,COLO 205 [1]; [32],81 nM
Cc1cnc(Nc2ccnn2C)nc1N1Cc2cn(C(CO)c3cccc(Cl)c3)nc2C1 (racemic),IC50,COLO 205 [1]; [32],248 nM
same,IC50,[2],14.4 nM
Cc1cnc(Nc2ccnn2C)nc1-c1cc2n(c1)C(=O)N([C@H](C)c1cccc(Cl)c1)C2,IC50,COLO 205 [1]; colo 205,Not Active
Cn1nccc1Nc1nccc(N2CC[C@H](C(=O)N[C@H](CO)c3cccc(Cl)c3)C2)n1,IC50,COLO 205 [1]; [32],> 10000 nM
same,IC50,[2],201 nM
Cn1nccc1Nc1ncc(Cl)c(-c2cc3n(c2)C(=O)N([C@H](CO)c2cccc(Cl)c2)C3)n1,IC50,COLO 205 [1]; [32],31.9 nM
same,IC50,Cytochrome P450 2C19,> 5000 nM
same,IC50,Cytochrome P450 2D6,350 nM
same,IC50,Cytochrome P450 2C9,> 5000 nM
same,IC50,Cytochrome P450 1A2,> 5000 nM
same,IC50,Cytochrome P450 3A4,> 5000 nM
Cc1cnc(Nc2ccnn2C)nc1-c1cc2n(c1)C(=O)N([C@H](CO)c1cccc(Cl)c1)C2,IC50,COLO 205 [1]; [32],44.6 nM
same,Cmax,[3],526 ng/mL
same,clearance,[4],10.5 mL/min/kg
same,bioavailability,[5],45.8%
same,clearance,[6],25.3 mL/min/kg
same,fraction unbound,[7],0.016
same,AUC at 336 h,[8],21400 ng·h/mL
same,AUC at 336 h,[9],30300 ng·h/mL
same,Cmax,[10],5150 ng/mL
same,bioavailability,[11],101%
same,IC50,[12],99.4 nM
same,AUC(0-t),[13],726 ng·h/mL
same,inhibition in vivo at 25 mg/kg,COLO 205 [14],112%
same,Cmax,[15],219 ng/mL
same,bioavailability,[16],90.8%
same,clearance,[17],12.2 mL/min/kg
same,Cmax,[18],9460 ng/mL
same,half-life,[19],2.1 h
same,Kp at 336 h,in vivo,1.42
same,AUC(0-t),[20],2460 ng·h/mL
same,half-life,[21],3.2 h
same,IC50,[22],64.3 nM
same,AUC(0-t),[23],3270 ng·h/mL
Cc1cnc(Nc2ccnn2C)nc1-c1ccc2c(c1)CN([C@H](CO)c1cccc(Cl)c1)C2=O,IC50,COLO 205 [1]; colo 205,Not Active
same,IC50,[2],4830 nM
Cc1cnc(Nc2ccnn2C)nc1-c1cc2n(c1)C(=O)N([C@H](CN)c1cccc(Cl)c1)C2,IC50,COLO 205 [1]; colo 205,Not Active
same,IC50,[2],18.3 nM
CC(C)Nc1cc(-c2c[nH]c(C(=O)N[C@H](CO)c3cccc(Cl)c3)c2)c(Cl)cn1 [ULIXERTINIB],IC50,COLO 205 [1]; [32],103 nM
same,Cmax,[24],13000 ng/mL
same,Kp at 336 h,[25],0.43
same,AUC at 336 h,[26],48800 ng·h/mL
same,AUC at 336 h,[27],114000 ng·h/mL
same,inhibition in vivo at 50 mg/kg,COLO 205 [28],63%
same,Cmax,[29],32300 ng/mL
Cc1cnc(Nc2ccnn2C)nc1-c1cc2n(c1)C(=O)N([C@H](CO)c1cccc(Cl)c1)CC2,half-life,[30],0.82 h
same,Cmax,[31],275 ng/mL
same,IC50,COLO 205 [1]; [32],77.1 nM
same,bioavailability,[5],29.4%
same,clearance,[6],38.5 mL/min/kg
same,AUC(0-t),[13],258 ng·h/mL
same,Cmax,[15],84.3 ng/mL
same,bioavailability,[16],54%
same,clearance,[17],63.1 mL/min/kg
same,half-life,[19],1.6 h
same,AUC(0-t),[20],277 ng·h/mL
O=C1N([C@H](CO)c2cccc(Cl)c2)Cc2cc(-c3nc(NC4CCOCC4)ncc3Cl)cn21,IC50,COLO 205 [1]; [32],104 nM
same,IC50,[2],5.8 nM
Cn1nccc1Nc1nccc(N2CCN(C(CO)c3cccc(Cl)c3)C(=O)C2)n1 (racemic),IC50,COLO 205 [1]; [32],> 10000 nM
same,IC50,[2],240 nM
Cc1cnc(NC(C)C)nc1-c1cc2n(c1)C(=O)N([C@H](CO)c1cccc(Cl)c1)C2,IC50,COLO 205 [1]; colo 205,Not Active
same,IC50,[2],188 nM
CNC[C@H](c1cccc(Cl)c1)N1Cc2cc(-c3nc(Nc4ccnn4C)ncc3C)cn2C1=O,IC50,COLO 205 [1]; [32],94.5 nM
same,IC50,[2],1.5 nM
Cn1nccc1Nc1nccc(-c2cn3c(n2)CN([C@H](CO)c2cccc(Cl)c2)C3=O)n1,IC50,COLO 205 [1]; colo 205,Not Active
same,IC50,[2],4200 nM
Cc1cnc(Nc2ccnn2C)nc1-c1cc2n(c1)C(=O)N([C@H](CO)c1ccc(Cl)c(F)c1)C2,IC50,COLO 205 [1]; [32],92.2 nM
same,IC50,[2],4.8 nM
Cc1cnc(Nc2ccnn2C)nc1-c1cn2c(c1F)CN([C@H](CO)c1cccc(Cl)c1)C2=O,IC50,COLO 205 [1]; colo 205,Not Active
same,IC50,[2],130 nM
COc1cc(F)cc([C@@H](CO)N2Cc3cc(-c4nc(Nc5ccnn5C)ncc4C)cn3C2=O)c1,IC50,COLO 205 [1]; [32],89.6 nM
same,IC50,[2],2.4 nM
C[C@H](CO)Nc1ncc(Cl)c(-c2cc3n(c2)C(=O)N([C@H](CO)c2cccc(Cl)c2)C3)n1,IC50,COLO 205 [1]; colo 205,Not Active
Cc1cnc(Nc2ccnn2C)nc1-c1cc2n(c1)C(=O)N(Cc1ccc(F)c(F)c1)C2,IC50,COLO 205 [1]; [32],293 nM
CC(C)Nc1cc(-c2cc3n(c2)C(=O)N([C@H](CO)c2cccc(Cl)c2)C3)c(Cl)cn1,IC50,COLO 205 [1]; colo 205,Not Active
same,IC50,[2],237 nM
Cc1cnc(Nc2ccnn2C)nc1N1Cc2nn(C(CO)c3cccc(Cl)c3)c(C)c2C1 (racemic),IC50,COLO 205 [1]; [32],964 nM
same,IC50,[2],99 nM
